Test results taken from publication PMC11638965, “Leveraging Dual-Ligase Recruitment to Enhance Protein Degradation via a Heterotrivalent Proteolysis Targeting Chimera” (Journal of the American Chemical Society, 2024).
Read-outs that look alike come from different tables or passages of the source.

What was measured:
[1] = system: RKO WT cells; test: cells; type: cell-based, human; details: Homo sapiens, 316 pM to 10 μM
Procedure: RKO WT, VHL KO, CRBN KO and CRBN/VHL dKO cells were cultured in Dulbecco’s modified Eagle’s medium supplemented with 10% FCS and 1% penicillin–streptomycin. RKO CRBN KO and VHL KO were generated previously.[45] RKO CRBN/VHL dKO cells were generated by transiently expressing pSpCas9(BB)-2A-GFP (PX458) (Addgene 48138) loaded with a short guide RNA (sgRNA) targeting VHL (Fwd: […], Rev: […]) in RKO CRBN KO cells. Clones were single cell seeded and checked for VHL and CRBN double deletion via Western blot or PCR on genomic DNA (gDNA).
Cells were seeded in 96-well plates at a cell density of 3750 cells per well and treated for 3 days with DMSO or drug at ten √10 serial diluted concentrations. […] Cell viability was assessed using the CellTiter-Glo assay (CellTiter-Glo Luminescent Cell Viability Assay, Promega G7573) according to manufacturer instructions. Luminescence signal was measured on a Multilabel Plate Reader Platform Victor X3 model 2030 (PerkinElmer). Survival curves and EC50 values were determined using GraphPad Prism v.10.0.3 by fitting a nonlinear regression to the log10-transformed drug concentration and the relative viability after normalization of each data point to the mean luminescence of the lowest drug concentration.

[2] = target: BRD4 (Homo sapiens, UniProt O60885); test: Live cell kinetic HiBiT degradation assay, HiBiT-BRD4 HEK293 cells (parental, CRBN KO, VHL KO); type: cell-based; details: for EC50: HiBiT-BRD4 CRISPR knock-in HEK293 cells, live cell kinetic degradation, 24 h, read-out: Dmax 50 BRD4; for λmax BRD4 (degradation rate): HiBiT-BRD4 knock-in HEK293 cells; for fold increase in degradation of BRD4 (Dmax 50) vs matched pair: 23 vs 1, 26 vs 23, 30 vs 2, HiBiT-BRD4 HEK293 cells
Procedure: HEK293 HiBiT-BRD2 (LgBiT stable), HEK293 HiBiT-BRD3 (LgBiT stable), and HEK293 HiBiT-BRD4 (LgBiT stable) were created using CRISPR/Cas9 to insert at HiBiT tag at the N-terminal genomic loci of BRD2, BRD3, or BRD4 in a cell line stably expressing LgBiT protein as described previously.[23]
For kinetic degradation experiments, HEK293 HiBiT-BRD2, 3, or 4 (LgBiT stable) cells and HEK293 HiBiT-BRD4 (LgBiT) CRBN KO and VHL KO cells were plated at 20,000 cells/well in DMEM +10% FBS in white 96-well tissue culture plates and allowed to adhere overnight. The next day, media was removed and 90 μL of prewarmed CO2-independent medium (Gibco) containing Endurazine (Promega) at a 1:100 dilution from stock was added. Plates were incubated at 37 °C for 3 h to allow luminescence to equilibrate. A threefold dilution series of each PROTAC at 10x the desired final concentration was prepared (with the amount of DMSO in each treatment condition kept constant). After luminescence equilibration, a preread luminescence measurement was taken (prior to compound addition) to allow for baseline normalization to account for possible plating differences. Cells were then treated with 10 μL of the prepared PROTAC dilution series (in triplicate or quadruplicate). Treated plates were placed in a GloMax Discover luminometer (Promega) prewarmed to 37 °C and luminescence measurements were obtained every 7 min for 24 h. Kinetic degradation plots were obtained by first normalizing time course luminescence readings in each well to the preread measurement, then to the average value of the DMSO only control at each time point. Data was analyzed using GraphPad Prism (version 8) and excel. Dmax values were identified as the lowest luminescence reading in each well. Rate constant values were calculated using a one phase exponential decay Y = (Y0-Plateau) e(K*^X) + Plateau using Prism (Y0 constrained to 1). Dmax 50 values were calculated by plotting Dmax as a function of concentration, then fitting plots using the following equation: [drawing 1] to determine IC50.
HiBiT-BRD4 (LgBiT stable) HEK293 cells (Promega) were used to generate both VHL KO HiBiT-BRD4 (LgBiT stable) and CRBN KO HiBiT-BRD4 (LgBiT stable) cell lines. For VHL, gRNAs targeting exon 1 ([…]) and exon 2 ([…]) and for CRBN, gRNAs targeting exon 3 ([…]) and exon 6 ([…]) were purchased from IDT DNA (Table 5). For each gRNA, tracrRNA/crRNA duplexes were formed by combining 10 μL of 100 μM Alt-R […] (IDT), 100 μM Alt-R crRNA (IDT) and heating at 95C for 5 min, then were allowed to cool to room temp for 20 min. RNPs were then formed by combining 75 pmol Cas9 (IDT) with 2.4 μL total of prepared tracrRNA/crRNA complex (1.2 μL for each gRNA targeting each exon). Cells were then trypsinized and resuspended at 10,000,000 cells/mL in 1 mL of Mirus Ingenio electroporation solution. Three μL of 100 μM electroporation enhancer (Mirus) was added, along with 3 μL of RNP solution. Cells were electroporated in 2 mm cuvettes using a BioRad system (190 V, 950 μF, infinite resistance) and were then plated in a T75 flask in full growth medium to allow for recovery. After recovery from electroporation, knockout pools were sorted for single cells in 96-well tissue culture treated plates. Clonal populations which expanded from single cells were then screened for loss of function of VHL by treating with MZ1, or loss of function of CRBN by treating with dBET6, using a HiBiT-BRD4 luminescent readout assay. Genomic DNA isolated from candidate clones was then PCR-amplified (Table of primers below), Gibson-assembled into a pF1A plasmid backbone, transformed into E. coli., and then Sanger sequenced to confirm presence of indels in the targeted exons. […] VHL exon 3 carried a 19 bp deletion on one allele, and a 1 bp insertion on the other allele, both occurring after the premature stop codon in exon 1.

[3] = WT RKO, n = 3 (Table S4), read-out: EC50 RKO

Row | SMILES | EC50 [1, 3] [nM] | EC50 [2] [nM] | λmax BRD4 (degradation rate) [2] [h⁻¹] | fold increase in degradation of BRD4 (Dmax 50) vs matched pair [2] [fold] | EC50 ([1]; 72 h, 3 days, n = 3 (Figures 5 and 8C, Table S5), read-out: EC50 RKO WT) [nM]
1 | Cc1ncsc1-c1ccc(CNC(=O)[C@@H]2C[C@@H](O)CN2C(=O)[C@@H](NC(=O)COCC(C)(COCCOCCOCCOC(=O)C[C@@H]2N=C(c3ccc(Cl)cc3)c3c(sc(C)c3C)-n3c(C)nnc32)COCCOCCOCCN2CCN(c3cccc4c3C(=O)N(C3CCC(=O)NC3=O)C4=O)CC2)C(C)(C)C)cc1 (mixture of isomers) [AB3029 (31), (17S)-11-((2-(2-(2-(4-(2-(2,6-dioxopiperidin-3-yl)-1,3-dioxoisoindolin-4-yl)piperazin-1-yl)ethoxy)ethoxy)ethoxy)methyl)-17-((2S,4R)-4-hydroxy-2-((4-(4-methylthiazol-5-yl)benzyl)carbamoyl)pyrrolidine-1-carbonyl)-11,18,18-trimethyl-15-oxo-3,6,9,13-tetraoxa-16-azanonadecyl 2-((S)-4-(4-chlorophenyl)-2,3,9-trimethyl-6H-thieno[3,2-f][1,2,4]triazolo[4,3-a][1,4]diazepin-6-yl)acetate] | 1020 | 15 | 1.99 | – | –
2 | Cc1ncsc1-c1ccc(CNC(=O)[C@@H]2C[C@@H](O)CN2C(=O)[C@@H](NC(=O)COCC(C)(COCCOCCOCCOC(=O)C[C@@H]2N=C(c3ccc(Cl)cc3)c3c(sc(C)c3C)-n3c(C)nnc32)COCCOCCOCCN2CCN(c3cc4c(cc3F)C(=O)N(C3CCC(=O)NC3=O)C4=O)CC2)C(C)(C)C)cc1 (mixture of isomers) [AB3030 (32), (17S)-11-((2-(2-(2-(4-(2-(2,6-dioxopiperidin-3-yl)-6-fluoro-1,3-dioxoisoindolin-5-yl)piperazin-1-yl)ethoxy)ethoxy)ethoxy)methyl)-17-((2S,4R)-4-hydroxy-2-((4-(4-methylthiazol-5-yl)benzyl)carbamoyl)pyrrolidine-1-carbonyl)-11,18,18-trimethyl-15-oxo-3,6,9,13-tetraoxa-16-azanonadecyl 2-((S)-4-(4-chlorophenyl)-2,3,9-trimethyl-6H-thieno[3,2-f][1,2,4]triazolo[4,3-a][1,4]diazepin-6-yl)acetate] | 402 | 7.4 | 2.19 | – | –
3 | Cc1ncsc1-c1ccc(CNC(=O)[C@@H]2C[C@@H](O)CN2C(=O)[C@@H](NC(=O)COCC(C)(COCCOCCOCCNc2cccc3c2C(=O)N(C2CCC(=O)NC2=O)C3=O)COCCOCCOCCOC(=O)C[C@@H]2N=C(c3ccc(Cl)cc3)c3c(sc(C)c3C)-n3c(C)nnc32)C(C)(C)C)cc1 (mixture of isomers) [AB3062 (23), (17S)-11-((2-(2-(2-((2-(2,6-dioxopiperidin-3-yl)-1,3-dioxoisoindolin-4-yl)amino)ethoxy)ethoxy)ethoxy)methyl)-17-((2S,4R)-4-hydroxy-2-((4-(4-methylthiazol-5-yl)benzyl)carbamoyl)pyrrolidine-1-carbonyl)-11,18,18-trimethyl-15-oxo-3,6,9,13-tetraoxa-16-azanonadecyl 2-((S)-4-(4-chlorophenyl)-2,3,9-trimethyl-6H-thieno[3,2-f][1,2,4]triazolo[4,3-a][1,4]diazepin-6-yl)acetate] | 420 | 11 | 1.40 | 3.4 | –
4 | Cc1ncsc1-c1ccc(CNC(=O)[C@@H]2C[C@@H](O)CN2C(=O)[C@@H](NC(=O)COCC(C)(COCCOCCOCCNc2cccc3c2C(=O)N(C2CCC(=O)NC2=O)C3=O)COCCOCCOC(=O)C[C@@H]2N=C(c3ccc(Cl)cc3)c3c(sc(C)c3C)-n3c(C)nnc32)C(C)(C)C)cc1 (mixture of isomers) [AB3064 (25), (14S)-8-((2-(2-(2-((2-(2,6-dioxopiperidin-3-yl)-1,3-dioxoisoindolin-4-yl)amino)ethoxy)ethoxy)ethoxy)methyl)-14-((2S,4R)-4-hydroxy-2-((4-(4-methylthiazol-5-yl)benzyl)carbamoyl)pyrrolidine-1-carbonyl)-8,15,15-trimethyl-12-oxo-3,6,10-trioxa-13-azahexadecyl 2-((S)-4-(4-chlorophenyl)-2,3,9-trimethyl-6H-thieno[3,2-f][1,2,4]triazolo[4,3-a][1,4]diazepin-6-yl)acetate] | 904 | 31 | 1.09 | – | –

Stronger by EC50 [1, 3], values ahead:

Row | EC50 [1, 3] [nM] | EC50 [2] [nM] | λmax BRD4 (degradation rate) [2] [h⁻¹] | fold increase in degradation of BRD4 (Dmax 50) vs matched pair [2] [fold] | EC50 ([1]; 72 h, 3 days, n = 3 (Figures 5 and 8C, Table S5), read-out: EC50 RKO WT) [nM] | SMILES
5 | 165 | 3 | 1.98 | 3.7 | 260 | Cc1ncsc1-c1ccc(CNC(=O)[C@@H]2C[C@@H](O)CN2C(=O)[C@@H](NC(=O)COCC(C)(COCCOCCOCCNc2cc3c(cc2F)C(=O)N(C2CCC(=O)NC2=O)C3=O)COCCOCCOCCOC(=O)C[C@@H]2N=C(c3ccc(Cl)cc3)c3c(sc(C)c3C)-n3c(C)nnc32)C(C)(C)C)cc1 (mixture of isomers) [AB3063 (26), (17S)-11-((2-(2-(2-((2-(2,6-dioxopiperidin-3-yl)-6-fluoro-1,3-dioxoisoindolin-5-yl)amino)ethoxy)ethoxy)ethoxy)methyl)-17-((2S,4R)-4-hydroxy-2-((4-(4-methylthiazol-5-yl)benzyl)carbamoyl)pyrrolidine-1-carbonyl)-11,18,18-trimethyl-15-oxo-3,6,9,13-tetraoxa-16-azanonadecyl 2-((S)-4-(4-chlorophenyl)-2,3,9-trimethyl-6H-thieno[3,2-f][1,2,4]triazolo[4,3-a][1,4]diazepin-6-yl)acetate]
6 | 214 | 2.9 | 1.51 | – | – | Cc1ncsc1-c1ccc(CNC(=O)[C@@H]2C[C@@H](O)CN2C(=O)[C@@H](NC(=O)COCC(C)(COCCOCCOCCNc2cc3c(cc2F)C(=O)N(C2CCC(=O)NC2=O)C3=O)COCCOCCOC(=O)C[C@@H]2N=C(c3ccc(Cl)cc3)c3c(sc(C)c3C)-n3c(C)nnc32)C(C)(C)C)cc1 (mixture of isomers) [AB3065 (28), (14S)-8-((2-(2-(2-((2-(2,6-dioxopiperidin-3-yl)-6-fluoro-1,3-dioxoisoindolin-5-yl)amino)ethoxy)ethoxy)ethoxy)methyl)-14-((2S,4R)-4-hydroxy-2-((4-(4-methylthiazol-5-yl)benzyl)carbamoyl)pyrrolidine-1-carbonyl)-8,15,15-trimethyl-12-oxo-3,6,10-trioxa-13-azahexadecyl 2-((S)-4-(4-chlorophenyl)-2,3,9-trimethyl-6H-thieno[3,2-f][1,2,4]triazolo[4,3-a][1,4]diazepin-6-yl)acetate]
